We go through 9 molecules from ChEMBL document CHEMBL1201862, “PubChem BioAssay data set” (2004).

Some test systems named below: HCT-15; HOP-92; A549; RPMI-8226; U-251; HT-29; OVCAR-8; ACHN; SN12C; SK-MEL-2; SF-268; OVCAR-5; IGROV-1; SF-539; M19-MEL; SNB-75; UACC-62; T47D; Hs-578T; MDA-N.
Test in all cases: growth of human tumour cells (NCI), 48 h

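Method: 48-hour compound exposure of cells in 96-well plates, five concentrations, linear interpolation of endpoints. GI50 = concentration required for 50% inhibition of growth.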 Active and inactive are the calls of the source. Rule as the data show it: active = GI50 up to about 1.1 µM and inactive = higher.

As to `C#C[C@@]1(O)CCCC2=CC(=O)C[C@]21C`, the GI50 in the experiment on HCT-15 was more than 100 µM; in the experiment on HOP-92, > 100 µM (inactive); with A549, > 100 µM (inactive); in the experiment on RPMI-8226, > 100 µM (inactive); in the experiment with U-251, > 100 µM (inactive); in the experiment on HT-29, > 100 µM (inactive). For the same molecule, the GI50 with OVCAR-8, in the experiment on ACHN, with SN12C, in the experiment with SK-MEL-2, in the experiment with SF-268 and in the experiment with OVCAR-5 was > 100 µM (inactive) in each case. In addition, the GI50 with IGROV-1, in the experiment on SF-539 and in the experiment on M19-MEL was > 100 µM (inactive) throughout.
Take `O=C1C=C(O)c2nc(O)ccc2C1=O`: the GI50 with HCT-15 was more than 100 µM; in the experiment with HOP-92 it was > 100 µM (inactive); in the experiment on A549, > 100 µM (inactive); in the experiment on RPMI-8226 it was > 100 µM (inactive); with U-251 it was > 100 µM (inactive); in the experiment on HT-29, > 100 µM (inactive). Further, the GI50 in the experiment with OVCAR-8, with ACHN, with SN12C, in the experiment with SNB-75, in the experiment with UACC-62 and in the experiment with SF-268 was > 100 µM (inactive) throughout. Further, the GI50 with IGROV-1, with SF-539 and in the experiment with M19-MEL was > 100 µM (inactive) throughout.
As for `O=C1c2ccccc2C(=O)N1C/C=N/NS(=O)(=O)c1ccc2ccccc2c1`, the GI50 in the experiment on HCT-15 was more than 100 µM; in the experiment on A549, > 100 µM (inactive); in the experiment on RPMI-8226, > 100 µM (inactive); in the experiment on U-251 it was > 100 µM (inactive); in the experiment with HT-29, > 100 µM (inactive); in the experiment with OVCAR-8, > 100 µM (inactive). Besides, the GI50 in the experiment with ACHN, in the experiment with SN12C, in the experiment on SNB-75, in the experiment with SK-MEL-2, with UACC-62 and in the experiment on OVCAR-5 was > 100 µM (inactive) each time. Moreover, the GI50 in the experiment with IGROV-1, with SF-539 and with M19-MEL was > 100 µM (inactive) in each case.
`O=C(NN1C(=O)C(Cl)C1c1ccc(O)cc1)c1ccccc1O` (stereo not given): the GI50 in the experiment on HCT-15 is 14.6 µM; in the experiment with A549, 22.4 µM (inactive); in the experiment with U-251, 14.3 µM (inactive); with HT-29 it was 18.4 µM (inactive); in the experiment on OVCAR-8, 13.5 µM (inactive); in the experiment with ACHN, 19.1 µM (inactive). For the same molecule, the GI50 with SN12C was 23 µM (inactive); in the experiment with SNB-75, 34.8 µM (inactive); in the experiment on SK-MEL-2, 19.9 µM (inactive); in the experiment with UACC-62, 17.2 µM (inactive); in the experiment with SF-268, 18.8 µM (inactive); in the experiment with IGROV-1 it was 14 µM (inactive). For the same molecule, the figures for the GI50 with SF-539 and with M19-MEL were 23.4 µM (inactive) and 21.7 µM (inactive), respectively.
For the molecule `Cc1cc2c(cc1-c1cc3c(cc1C)C(C(C)C)=C(O)C(=O)/C3=C\NCC1CCCN3CCCCC13)/C(=C/NCC1CCCN3CCCCC13)C(=O)C(O)=C2C(C)C` (stereo not given), the GI50 with HCT-15 is 5.33 µM; in the experiment on HOP-92 it was 15.8 µM (inactive); in the experiment with A549 it was 4.93 µM (inactive); in the experiment on RPMI-8226, 11.3 µM (inactive); in the experiment with U-251 it was 2.9 µM (inactive); in the experiment with HT-29, 2.47 µM (inactive). For the same molecule, the GI50 in the experiment with T47D was 8.05 µM (inactive); with OVCAR-8, 3.61 µM (inactive); in the experiment with Hs-578T, 10.2 µM (inactive); with ACHN, 3.81 µM (inactive); with MDA-N it was 5.78 µM (inactive); in the experiment with SN12C it was 4.82 µM (inactive). Also, the GI50 in the experiment on SNB-75 was 8.15 µM (inactive); in the experiment on SK-MEL-2, 8.02 µM (inactive); in the experiment with UACC-62 it was 7.78 µM (inactive); in the experiment on SF-268, 3.85 µM (inactive); with OVCAR-5, 10.8 µM (inactive); in the experiment with IGROV-1, 5.97 µM (inactive). Further, the GI50 with SF-539 is 14.9 µM (inactive).
In the case of `O=C(O)c1nn[nH]c1S`, the GI50 is more than 100 µM in the experiment on HCT-15; 4.59 µM (inactive) with HOP-92; > 100 µM (inactive) in the experiment with A549; > 100 µM (inactive) in the experiment on RPMI-8226; > 100 µM (inactive) in the experiment on U-251; > 100 µM (inactive) in the experiment on HT-29. In addition, the GI50 in the experiment with T47D, with OVCAR-8, in the experiment with Hs-578T, with ACHN, in the experiment with MDA-N and with SN12C was > 100 µM (inactive) in each case. The GI50 in the experiment on SNB-75, in the experiment with SK-MEL-2, with UACC-62, with SF-268, in the experiment with OVCAR-5 and with IGROV-1 was > 100 µM (inactive) each time. Also, the GI50 in the experiment with SF-539 is 30.6 µM (inactive).
For `CN(C)CCCC12CCCCC1=Nc1ccccc12` (stereo not given), the GI50 in the experiment with HCT-15 is more than 100 µM; in the experiment on HOP-92, > 100 µM (inactive); in the experiment on A549, > 100 µM (inactive); in the experiment with RPMI-8226, 65.5 µM (inactive); with U-251 it was > 100 µM (inactive); in the experiment on HT-29 it was > 100 µM (inactive). Moreover, the GI50 in the experiment on T47D, with OVCAR-8, in the experiment with Hs-578T, in the experiment on ACHN, in the experiment with MDA-N and in the experiment on SN12C was > 100 µM (inactive) throughout. Besides, the GI50 in the experiment with SNB-75, in the experiment on SK-MEL-2, in the experiment with UACC-62, in the experiment on SF-268, in the experiment on OVCAR-5 and with IGROV-1 was > 100 µM (inactive) in each case. Also, the GI50 with SF-539 was > 100 µM (inactive).
Consider `N#C[BH2-][n+]1cn(C2CC(OP(=O)(O)OCC3OC(n4cnc5c(N)ncnc54)CC3O)C(CO)O2)c2nc(N)[nH]c(=O)c21` (stereo not given), for which the GI50 in the experiment on HCT-15 is more than 100 µM; in the experiment with HOP-92, > 100 µM (inactive); in the experiment with A549, > 100 µM (inactive); in the experiment on RPMI-8226, > 100 µM (inactive); with U-251, > 100 µM (inactive); in the experiment on HT-29, > 100 µM (inactive). The GI50 in the experiment with T47D, in the experiment with OVCAR-8, with Hs-578T, with ACHN, in the experiment on MDA-N and with SN12C was > 100 µM (inactive) each time. Further, the GI50 in the experiment with SNB-75, with SK-MEL-2, in the experiment with UACC-62, in the experiment with SF-268, with OVCAR-5 and in the experiment on IGROV-1 was > 100 µM (inactive) throughout. Further, the GI50 with SF-539 is > 100 µM (inactive).
As to `COc1cc(/C=C(\NC(=O)c2ccccc2)c2nc3c(O)nc(S)nc3[nH]2)cc(OC)c1OC`, the GI50 in the experiment with HCT-15 was more than 100 µM; with HOP-92, 59.3 µM (inactive); in the experiment on A549, > 100 µM (inactive); with U-251, > 100 µM (inactive); in the experiment with HT-29, > 100 µM (inactive); in the experiment on OVCAR-8, > 100 µM (inactive). The GI50 in the experiment with ACHN, in the experiment on SN12C, in the experiment on SK-MEL-2, in the experiment with UACC-62, in the experiment with SF-268 and with OVCAR-5 was > 100 µM (inactive) in each case. Moreover, the GI50 in the experiment with IGROV-1, in the experiment on SF-539 and in the experiment on M19-MEL was > 100 µM (inactive) each time.
